Test results as given in PubChem BioAssay (NCI).
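Following 48 hours of exposure in 96-well plates, responses at five concentrations were used to interpolate endpoints linearly. At the GI50, growth is halved. TGI is the concentration that stops growth completely.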

Tests used:
Assay in all cases: NCI-60 cell line screen, 48 h
A549 NSCLC = system: A549 NSCLC
DU-145 prostate = system: DU-145 prostate
EKVX NSCLC = system: EKVX NSCLC
OVCAR-3 ovarian = system: OVCAR-3 ovarian
SF-539 CNS = system: SF-539 CNS
SK-MEL-5 melanoma = system: SK-MEL-5 melanoma
UACC-257 melanoma = system: UACC-257 melanoma
UACC-62 melanoma = system: UACC-62 melanoma
ACHN renal = system: ACHN renal
HL-60(TB) leukemia = system: HL-60(TB) leukemia

SMILES | GI50 (A549 NSCLC) | TGI (A549 NSCLC) | GI50 (DU-145 prostate) | TGI (DU-145 prostate) | GI50 (EKVX NSCLC) | TGI (EKVX NSCLC) | GI50 (OVCAR-3 ovarian) | TGI (OVCAR-3 ovarian) | GI50 (SF-539 CNS) | TGI (SF-539 CNS) | GI50 (SK-MEL-5 melanoma) | TGI (SK-MEL-5 melanoma) | GI50 (UACC-257 melanoma) | TGI (UACC-257 melanoma) | GI50 (UACC-62 melanoma) | TGI (UACC-62 melanoma) | GI50 (ACHN renal) | TGI (ACHN renal) | TGI (HL-60(TB) leukemia) | GI50 (HL-60(TB) leukemia)
O=c1[nH]c(=O)c2cc(C3CC(O)C(CO)O3)ccc2[nH]1 (stereo not drawn) | > 100 µM | > 100 µM | > 100 µM | > 100 µM | > 100 µM | > 100 µM | > 100 µM | > 100 µM | > 100 µM | > 100 µM | > 100 µM | > 100 µM | > 100 µM | > 100 µM | > 100 µM | > 100 µM |  |  |  | 
Nc1nc(N)c2c(n1)NC(c1ccc(F)cc1)C1CCc3ccccc3C1=N2 (stereo not drawn) | 10.2 µM | 24.3 µM | 7.45 µM | 19.8 µM | 2.83 µM | 14.6 µM | 4.15 µM | 16.1 µM | 10.5 µM | 22.4 µM | 0.609 µM | 2.21 µM | 5.37 µM | 17.8 µM | 3.76 µM | 17.7 µM | 4.96 µM | 17.8 µM |  | 
COC(=O)NN=C1C(C)(C)C(=O)C1(C)C |  | > 100 µM |  |  |  | > 100 µM |  | > 100 µM |  | > 100 µM |  | > 100 µM |  | > 100 µM |  | > 100 µM |  | > 100 µM | > 100 µM | 
CN1CC[C@]2(C)c3cc(O)ccc3CC3CCCC1C32C (stereo partly drawn) |  | > 100 µM |  |  |  | > 100 µM |  | > 100 µM |  | > 100 µM |  | > 100 µM |  | > 100 µM |  | > 100 µM |  | > 100 µM | > 100 µM | 
O=C(O)CCC(NC(=O)c1ccccc1)C(=O)O (stereo not drawn) |  | > 100 µM |  |  |  | > 100 µM |  | > 100 µM |  | > 100 µM |  | > 100 µM |  | > 100 µM |  | > 100 µM |  | > 100 µM |  | 
Cn1ccc2c(C(=O)c3ccccc3)cccc2c1=O |  | > 100 µM |  |  |  | > 100 µM |  | > 100 µM |  | > 100 µM |  | > 100 µM |  | > 100 µM |  | > 100 µM |  | > 100 µM | 88.9 µM | 
COc1ccc(/C(=N\O)c2cc(C)c(OC)c(C)c2)cc1O | 0.039 µM | > 100 µM | 0.0349 µM | > 100 µM | 0.0613 µM | > 100 µM | < 0.01 µM | > 100 µM |  |  | < 0.01 µM | 0.068 µM |  |  | < 0.01 µM | > 100 µM | < 0.01 µM | > 100 µM | 0.0607 µM | 0.011 µM
O=Cc1ccccc1B(O)O |  | 38.5 µM |  |  |  |  |  | > 100 µM |  | > 100 µM |  |  |  | > 100 µM |  | > 100 µM |  | > 100 µM | > 100 µM | 
O=C1CCCC(=O)N1CCc1c[nH]c2ccccc12 |  | > 100 µM |  |  |  | > 100 µM |  | > 100 µM |  | > 100 µM |  | > 100 µM |  | > 100 µM |  | > 100 µM |  | > 100 µM | > 100 µM | 
Oc1ccccc1CNCC12CC3CC(CC(C3)C1)C2 |  |  | 48.9 µM | > 100 µM |  |  | 57.5 µM | > 100 µM | 33.3 µM | > 100 µM | 13.5 µM | 26.9 µM |  |  | 17.8 µM | 38.7 µM | 39.6 µM | > 100 µM | 53.3 µM | 22 µM
COc1cc(C(O)C(=O)c2nc3ccc([N+](=O)[O-])cc3[nH]c2=O)ccc1O (stereo not drawn) |  | > 100 µM |  |  |  | > 100 µM |  | > 100 µM |  | > 100 µM |  | > 100 µM |  |  |  | > 100 µM |  | > 100 µM | > 100 µM | 
C[C@]12CCC(=O)C(O)=C1CC[C@@H]1C2CC[C@]2(C)Nc3c(cnn3-c3ccccc3)CC12 (stereo partly drawn) |  | > 100 µM |  |  |  | > 100 µM |  | > 100 µM |  | > 100 µM |  | > 100 µM |  | > 100 µM |  | > 100 µM |  | > 100 µM | 62.6 µM | 
COc1cccc2c1C(=O)c1c(O)c3c(c(O)c1C2=O)C[C@@](O)(C(=O)CO)C[C@@H]3O[C@H]1C[C@H](N)[C@@H](O)[C@H](C)O1 | 0.05 µM | 1.22 µM | 0.159 µM | 5.8 µM | 1.2 µM | 16.1 µM | 0.613 µM | 13.4 µM |  |  |  | 0.623 µM | 0.431 µM | 1.82 µM | 0.0847 µM | 0.498 µM |  |  | 1.01 µM | 0.145 µM
Fc1ccccc1C1SCc2nc3ccccc3n21 (stereo not drawn) |  | > 100 µM |  |  |  | > 100 µM |  | > 100 µM |  | > 100 µM |  | 42.9 µM |  | > 100 µM |  | > 100 µM |  | > 100 µM | 44.6 µM | 
CC1=NN(C(=O)CC(=O)NC(=O)CC(=O)Nc2ccccc2F)C(=O)C1N=Nc1ccc([N+](=O)[O-])cc1 (stereo not drawn) |  | 86.2 µM |  |  |  | 96.2 µM |  | 81.3 µM |  | > 100 µM |  | > 100 µM |  | 76.1 µM |  | > 100 µM |  | > 100 µM |  | 
Cc1cc2[nH]c(=O)c3c4ccccc4cn3c2cc1C | 14.8 µM | 37.7 µM | 13.9 µM | 30.1 µM | 13.6 µM | 31.9 µM | 14 µM | 28.5 µM | 11.2 µM | 27 µM | 13.6 µM | 29.6 µM | 20.2 µM | 35.9 µM | 16.7 µM | 31.9 µM | 10.2 µM | 23.5 µM |  | 
Clc1ccc2nnnn2n1 | 13.9 µM | > 100 µM | 2.31 µM | 6.41 µM | 18 µM | 62.3 µM | 2.6 µM | 6.66 µM |  |  | 2.24 µM | 6.19 µM | 16.1 µM | 56.9 µM | 2.77 µM | 27.5 µM | 5.27 µM | 19.5 µM | 5.14 µM | 1.94 µM
O=C1C2C=CC(C2)C(c2ccc(O)cc2)N1O (stereo not drawn) |  | > 100 µM |  |  |  | > 100 µM |  | > 100 µM |  |  |  | > 100 µM |  | > 100 µM |  | > 100 µM |  | > 100 µM | > 100 µM | 
